Measurements: publication PMC4641453 (Science translational medicine, 2015)
Values after ≈ are worked out from the molar mass of the structure shown. Where two headings read alike, the source gives them in different places.

Legend:
[1] = tested on: S. pneumoniae isolates; type: cell-based; conditions: Streptococcus pneumoniae
[2] = tested on: Listeria monocytogenes (NS512); assay: microbe, parasite or virus in culture; type: cell-based
[3] = tested on: Haemophilus influenzae (ATCC 49247); assay: microbe, parasite or virus in culture; type: cell-based; conditions: ATCC49247, read-out: Zone of inhibition Hi
[4] = tested on: Neisseria gonorrhoeae (ATCC 49226); type: cell-based; conditions: 40 μg of compound on 6 mm disc; range of two experiments
[5] = tested on: S. pneumoniae strain TIGR4; assay: Mouse intranasal pneumococcal challenge, bacteremia and meningitis; type: in vivo, mice; conditions: 5 mg/kg from 18 hours after intranasal challenge
[6] = mean (% CV); cited from earlier work
[7] = tested on: Bacillus subtilis (ATCC 23857); assay: microbe, parasite or virus in culture; type: cell-based; conditions: ATCC23857, read-out: MIC Bs
[8] = tested on: Moraxella catarrhalis (ATCC 25238); assay: microbe, parasite or virus in culture; type: cell-based; conditions: ATCC25238, read-out: MIC Moraxella catarrhalis
[9] = tested on: Legionella pneumophila (ATCC 33153); assay: microbe, parasite or virus in culture; type: cell-based
[10] = tested on: Streptococcus pneumoniae mutants resistant to compound 1; assay: In vitro generation and MIC testing of compound 1 resistant mutants; type: cell-based; conditions: fifteen compound 1 resistant S. pneumoniae clones (RpsE G27R)
[11] = tested on: Neisseria meningitidis (ATCC 13077); assay: microbe, parasite or virus in culture; type: cell-based; conditions: ATCC13077, read-out: Zone of inhibition Nm
[12] = tested on: MSSA, Staphylococcus aureus (ATCC 29213); assay: microbe, parasite or virus in culture; type: cell-based; conditions: ATCC29213|MSSA, read-out: MIC MSSA
[13] = tested on: S. pneumoniae strain D39x; assay: Mouse intranasal pneumococcal challenge, pneumonia and bacteremia; type: in vivo, mice
[14] = tested on: Streptococcus pyogenes (ATCC 700294); assay: microbe, parasite or virus in culture; type: cell-based; conditions: ATCC700294, read-out: MIC Spy
[15] = tested on: MRSA, Staphylococcus aureus (NRS70); assay: microbe, parasite or virus in culture; type: cell-based; conditions: MRSA|NRS70, read-out: MIC MRSA
[16] = rat, in vivo, 10 mg/kg; cited from earlier work
[17] = tested on: Chlamydia trachomatis serovar L2 (strain 434/Bu); assay: Chlamydial susceptibility testing in infected HeLa 229 monolayers; conditions: up to 100 μg/mL, C. trachomatis-infected monolayers
[18] = tested on: Streptococcus pneumoniae (R6); assay: microbe, parasite or virus in culture; type: cell-based; conditions: read-out: MIC Spn
[19] = type: physicochemical; conditions: pH 7
[20] = tested on: Enterococcus faecalis (ATCC 33186); assay: microbe, parasite or virus in culture; type: cell-based; conditions: ATCC33186, read-out: MIC Ef
[21] = ATCC700904, read-out: MIC ATCC700904

## CO/N=C(\C(=O)N[C@@H]1C(=O)N2C(C(=O)O)=C(COC(C)=O)CS[C@H]12)c1csc(N)n1 [Cefotaxime]
[1]; [21]
  MIC: 0.2 µg/mL (≈ 0.439 µM)
[1]; read-out: MIC 8249
  MIC: 3 µg/mL (≈ 6.59 µM)
[1]; read-out: MIC Daw19
  MIC: 1 µg/mL (≈ 2.2 µM)
[1]; read-out: MIC Daw26
  MIC: 3 µg/mL (≈ 6.59 µM)
[1]; read-out: MIC Daw47
  MIC: 3 µg/mL (≈ 6.59 µM)

## CC[C@H]1OC(=O)[C@H](C)[C@@H](O[C@H]2C[C@@](C)(OC)[C@@H](O)[C@H](C)O2)[C@H](C)[C@@H](O[C@@H]2O[C@H](C)C[C@H](N(C)C)[C@H]2O)[C@](C)(O)C[C@@H](C)C(=O)[C@H](C)[C@@H](O)[C@]1(C)O [Erythromycin]
[1]; [21]
  MIC: 2 µg/mL (≈ 2.73 µM)
[1]; read-out: MIC 8249
  MIC: > 2 µg/mL
[1]; read-out: MIC BAA-1407
  MIC: 50 µg/mL (≈ 68.1 µM)
[1]; read-out: MIC Daw7
  MIC: ≤ 0.2 µg/mL
[1]; read-out: MIC Daw8
  MIC: ≤ 0.2 µg/mL
[1]; read-out: MIC Daw9
  MIC: 2 µg/mL (≈ 2.73 µM)
[1]; read-out: MIC Daw19
  MIC: 1 µg/mL (≈ 1.36 µM)
[1]; read-out: MIC Daw26
  MIC: 0.1 µg/mL (≈ 0.136 µM)
[1]; read-out: MIC Daw27
  MIC: 1 µg/mL (≈ 1.36 µM)
[1]; read-out: MIC Daw47
  MIC: 0.03 µg/mL (≈ 0.0409 µM)
[1]; read-out: MIC Daw62
  MIC: ≤ 0.2 µg/mL
[1]; read-out: MIC Daw64
  MIC: ≤ 0.2 µg/mL
[1]; read-out: MIC OVA2
  MIC: 1 µg/mL (≈ 1.36 µM)
[1]; read-out: MIC R6
  MIC: ≤ 0.2 µg/mL

## CC1(C)S[C@@H]2[C@H](NC(=O)Cc3ccccc3)C(=O)N2[C@H]1C(=O)O [Penicillin G]
[1]; [21]
  MIC: > 2 µg/mL
[1]; read-out: MIC 8249
  MIC: > 2 µg/mL
[1]; read-out: MIC A66.1x
  MIC: ≤ 0.2 µg/mL
[1]; read-out: MIC BAA-1407
  MIC: 2 µg/mL (≈ 5.98 µM)
[1]; read-out: MIC BHN97x
  MIC: ≤ 0.2 µg/mL
[1]; read-out: MIC D39X
  MIC: ≤ 0.2 µg/mL
[1]; read-out: MIC Daw7
  MIC: 3 µg/mL (≈ 8.97 µM)
[1]; read-out: MIC Daw8
  MIC: 3 µg/mL (≈ 8.97 µM)
[1]; read-out: MIC Daw9
  MIC: 2 µg/mL (≈ 5.98 µM)
[1]; read-out: MIC Daw19
  MIC: 3 µg/mL (≈ 8.97 µM)
[1]; read-out: MIC Daw26
  MIC: 3 µg/mL (≈ 8.97 µM)
[1]; read-out: MIC Daw27
  MIC: 3 µg/mL (≈ 8.97 µM)
[1]; read-out: MIC Daw47
  MIC: 3 µg/mL (≈ 8.97 µM)
[1]; read-out: MIC Daw62
  MIC: 3 µg/mL (≈ 8.97 µM)
[1]; read-out: MIC Daw64
  MIC: 2 µg/mL (≈ 5.98 µM)
[1]; read-out: MIC OVA2
  MIC: ≤ 0.2 µg/mL
[1]; read-out: MIC R6
  MIC: ≤ 0.2 µg/mL
[1]; read-out: MIC T4X
  MIC: ≤ 0.2 µg/mL

## CN[C@@H]1[C@H](O)[C@H](NC)[C@H]2O[C@@]3(O)C(=O)C[C@@H](C)O[C@H]3O[C@@H]2[C@H]1O [Spectinomycin, spectinomycin]
[2]; Listeria monocytogenes, read-out: MIC Lm
  MIC: 50 µg/mL (≈ 150 µM)
[2]; NS512, range of two independent experiments
  MIC Lm: 50 µg/mL (≈ 150 µM)
[3]
  zone of inhibition at 40 µg/disc: 12 mm
[1]; [21]
  MIC: 25 µg/mL (≈ 75.2 µM)
[1]; read-out: MIC 8249
  MIC: 25 µg/mL (≈ 75.2 µM)
[1]; read-out: MIC A66.1x
  MIC: 6 µg/mL (≈ 18.1 µM)
[1]; read-out: MIC BAA-1407
  MIC: 13 µg/mL (≈ 39.1 µM)
[1]; read-out: MIC BHN97x
  MIC: 6 µg/mL (≈ 18.1 µM)
[1]; read-out: MIC D39X
  MIC: 13 µg/mL (≈ 39.1 µM)
[1]; read-out: MIC Daw7
  MIC: 25 µg/mL (≈ 75.2 µM)
[1]; read-out: MIC Daw8
  MIC: 25 µg/mL (≈ 75.2 µM)
[1]; read-out: MIC Daw9
  MIC: 13 µg/mL (≈ 39.1 µM)
[1]; read-out: MIC Daw19
  MIC: 25 µg/mL (≈ 75.2 µM)
[1]; read-out: MIC Daw26
  MIC: 50 µg/mL (≈ 150 µM)
[1]; read-out: MIC Daw27
  MIC: 25 µg/mL (≈ 75.2 µM)
[1]; read-out: MIC Daw47
  MIC: 25 µg/mL (≈ 75.2 µM)
[1]; read-out: MIC Daw62
  MIC: 25 µg/mL (≈ 75.2 µM)
[1]; read-out: MIC Daw64
  MIC: 25 µg/mL (≈ 75.2 µM)
[1]; read-out: MIC OVA2
  MIC: 13 µg/mL (≈ 39.1 µM)
[1]; read-out: MIC R6
  MIC: 13 µg/mL (≈ 39.1 µM)
[1]; read-out: MIC T4X
  MIC: 13 µg/mL (≈ 39.1 µM)
[4]
  Zone of inhibition Ng: 10–11.5 mm
[5]
  Survival of infected mice: did not survive beyond 96 hours
[6]
  Microsomal Stability t1/2: 6.43 (0.13) hr
[7]
  MIC: 12.5 µg/mL (≈ 37.6 µM)
[8]
  MIC: 6 µg/mL (≈ 18.1 µM)
[9]; 40 μg of compound on 6 mm disc, 48 hours, range of two experiments
  Zone of inhibition Lp: completely inactive
[9]; Legionella pneumophila, ATCC33153, 48 h, read-out: Zone of inhibition Lp
  zone of inhibition at 40 µg/disc: 0 mm
[10]
  MIC against resistant clones: weakly susceptible
[11]
  zone of inhibition at 40 µg/disc: 13 to 15 mm
[12]
  MIC: 100 µg/mL (≈ 301 µM)
[13]; 5 mg/kg BID subcutaneous from 18 hours post challenge, D39x, n=5
  Survival of infected mice: died or were humanely euthanized by 120 hours post challenge
[13]; 72 hours post challenge, 5 mg/kg BID
  Bioluminescent imaging of infection: systemic bacterial infection
[14]
  MIC: 25 µg/mL (≈ 75.2 µM)
[15]
  MIC: > 200 µg/mL
[16]
  IV Pharmacokinetics CL: 0.60 (11.5) L/hr/Kg
  IV Pharmacokinetics T1/2: 0.75 (49.3) hr
  IV Pharmacokinetics Vd: 0.76 (45.2) L/Kg
  IV Pharmacokinetics fe (fraction excreted unchanged in urine): 0.55 (27.0)
[17]
  Reduction of intracellular inclusions: failed to reduce intracellular inclusions
[18]
  MIC: 12.5 µg/mL (≈ 37.6 µM)
[19]
  Chemical stability (percent of parent over time): continuously declined over time
[20]
  MIC: 100 µg/mL (≈ 301 µM)

## [H]/N=C(/N)N[C@H]1[C@H](O)[C@@H](O)[C@H](O[C@@H]2O[C@@H](C)[C@](O)(C=O)[C@H]2O[C@@H]2O[C@@H](CO)[C@H](O)[C@@H](O)[C@@H]2NC)[C@@H](N/C(N)=N\[H])[C@@H]1O [Streptomycin]
[1]; [21]
  MIC: > 200 µg/mL
[1]; read-out: MIC 8249
  MIC: > 200 µg/mL
[1]; read-out: MIC A66.1x
  MIC: 13 µg/mL (≈ 22.4 µM)
[1]; read-out: MIC BAA-1407
  MIC: 50 µg/mL (≈ 86 µM)
[1]; read-out: MIC BHN97x
  MIC: 13 µg/mL (≈ 22.4 µM)
[1]; read-out: MIC D39X
  MIC: 13 µg/mL (≈ 22.4 µM)
[1]; read-out: MIC Daw7
  MIC: 25 µg/mL (≈ 43 µM)
[1]; read-out: MIC Daw8
  MIC: 25 µg/mL (≈ 43 µM)
[1]; read-out: MIC Daw9
  MIC: > 200 µg/mL
[1]; read-out: MIC Daw62
  MIC: 25 µg/mL (≈ 43 µM)
[1]; read-out: MIC Daw64
  MIC: 25 µg/mL (≈ 43 µM)
[1]; read-out: MIC OVA2
  MIC: 13 µg/mL (≈ 22.4 µM)
[1]; read-out: MIC R6
  MIC: 13 µg/mL (≈ 22.4 µM)
[1]; read-out: MIC T4X
  MIC: 6 µg/mL (≈ 10.3 µM)

## CC1(C)S[C@@H]2[C@H](NC(=O)[C@H](N)c3ccccc3)C(=O)N2[C@H]1C(=O)O [ampicillin]
[13]; matched doses 2.5 or 5 mg/kg
  Survival of infected mice, 9 day experiment: all survived
[13]; within 48 hours post infection, 2.5 or 5 mg/kg
  Reduction of bacterial titers: more than 3 logs
